# Measurements: patent US20040037804A1, “Methods for treatment of asthma” (priority 2002, published 2004)
# System: airway smooth muscle (ASM) tissues
# Assay: Isometric constrictor responsiveness to acetylcholine in isolated rabbit tracheal ASM rings (organ bath)
# Type: cell-based
# Conditions: control (not cytokine-exposed) ASM, DEX 1 μM, 24 hours
# Protocol: Following general anesthesia with xylazine (10 mg/kg) and ketamine 50 mg/kg), NZW rabbits were sacrificed by air embolism and the tracheae were removed, cleaned of loose connective tissue and epithelium, and divided into ring segments.
# Following incubation, the ASM tissue segments were placed in organ baths containing modified Krebs Ringer solution, and aerated with 5% CO2 in oxygen at 37° C. The tissues' isometric cholinergic contractility was subsequently assessed by cumulative administration of acetylcholine (ACh; 10^−10 to 10^−3 M).
structure (smiles),measurement,value
"C[C@@H]1C[C@H]2[C@@H]3CCC4=CC(=O)C=C[C@]4(C)[C@@]3(F)[C@@H](O)C[C@]2(C)[C@@]1(O)C(=O)CO [DEX, dexamethasone]",effect on constrictor responses to ACh in control ASM,no effect
